Reference: PubChem BioAssay (NCI)
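In this assay, cells in 96-well plates receive the compound at five concentrations for 48 hours. Endpoints are linearly interpolated between the surrounding concentrations. GI50: concentration for 50% inhibition of growth. TGI: total growth inhibition.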

Tests used:
Experiment in all cases: NCI tumour cell line growth inhibition, 48 h
[1] = tested on: M14 melanoma
[2] = tested on: NCI-H460 lung
[3] = tested on: SW-620 colon
[4] = tested on: EKVX NSCLC
[5] = tested on: HT29 colon
[6] = tested on: NCI/ADR-RES ovarian
[7] = tested on: T-47D breast
[8] = tested on: SK-MEL-2 melanoma
[9] = tested on: HCT-116 colon
[10] = tested on: HCT-15 colon

| Compound | TGI [1] [µM] | TGI [2] [µM] | TGI [3] [µM] | TGI [4] [µM] | TGI [5] [µM] | TGI [6] [µM] | TGI [7] [µM] | TGI [8] [µM] | TGI [9] [µM] | TGI [10] [µM] | GI50 [1] [µM] | GI50 [2] [µM] | GI50 [3] [µM] | GI50 [4] [µM] | GI50 [5] [µM] | GI50 [6] [µM] | GI50 [7] [µM] | GI50 [8] [µM] | GI50 [9] [µM] | GI50 [10] [µM] |
| --- | --- | --- | --- | --- | --- | --- | --- | --- | --- | --- | --- | --- | --- | --- | --- | --- | --- | --- | --- | --- |
| CCCn1cnc2c(SCC(=O)O)nc(N)nc21 | > 100 | > 100 | > 100 | > 100 | > 100 | > 100 | > 100 | > 100 | > 100 | > 100 |  |  |  |  |  |  |  |  |  |  |
| Cc1cc(Cl)ccc1OCC(=O)Nc1nc(N)nc(N)n1 | > 100 | > 100 | > 100 | > 100 | > 100 | > 100 | > 100 | > 100 | > 100 | > 100 |  |  |  |  |  |  |  |  |  |  |
| COc1ccc(C(=O)c2cc3c(N)c(C(=O)Nc4ccccc4)sc3nc2C)cc1 | > 100 | 3.93 | > 100 | > 100 | > 100 | > 100 | > 100 | > 100 | > 100 | > 100 | 0.779 | 0.439 | 0.415 | 5.42 | 0.562 | 0.816 | 0.74 | 4.22 | 0.635 | 0.426 |
| CN(C)c1nc(=NCc2ccco2)ss1 | > 53.8 | > 100 | 61.9 | 64.3 | 20.4 | > 100 | 20.1 | > 64.8 | 35 | 49.9 |  |  |  |  |  |  |  |  |  |  |
| CCOc1ccc2c(c1)C(=O)c1c-2n(CCCBr)c(=O)c2cc([N+](=O)[O-])ccc12 | > 100 | 91.6 | > 100 | > 100 | > 100 | > 100 | 9.12 | > 100 | > 100 | > 100 | 6.58 | 1.97 | 4.63 | 86.1 | > 100 | 9.06 | 0.55 | > 100 | 5.98 | 36 |
| C1=C/COCc2cc(ccc2OCCN2CCCC2)Nc2nccc(n2)-c2ccc(o2)COC/1 | 9.09 | 4.5 | 11.7 | 5.89 | 7.33 | 8.62 | 7.33 | 4 | 10.6 | 9.11 | 1.56 | 1.16 | 2.36 | 1.88 | 1.33 | 2.9 | 1.21 | 1.46 | 0.757 | 1.11 |
| NCCCCC1NC(=O)C(CC(=O)O)NC(=O)CNC(=O)C(CCCN=C(N)N)NC(=O)C(N)CSSCC(C(=O)O)NC(=O)C(CC(=O)O)NC(=O)C2CCCN2C(=O)CNC1=O (stereo not given) | > 100 | > 100 | > 100 | > 100 | > 100 | > 100 | > 100 | > 100 | > 100 | > 100 | > 100 | > 100 | > 100 | > 100 | > 100 | > 100 | > 100 | > 100 | > 100 | > 100 |
| Cc1ccc2nc(-c3ccc(OCC(=O)N=Nc4c(O)[nH]c5ccccc45)cc3)[nH]c2c1 | > 100 | 4.06 | 4.32 | > 100 | 6.27 | > 100 | 4.88 | 14.7 | 5.35 | > 100 | 5.43 | 2.01 | 2.02 | 28 | 2.43 | > 100 | 2.02 | 3.71 | 2.26 | 8.69 |
| CC(C)c1nc(N(C)S(C)(=O)=O)nc(-c2ccc(F)cc2)c1/C=C/[C@@H](O)C[C@@H](O)CC(=O)O | > 100 | > 100 | > 100 | > 100 | > 100 | > 100 | > 100 | > 100 | > 100 | > 100 | > 100 | > 100 | > 100 | > 100 | > 100 | 48.6 | > 100 | 26.2 | 59.5 | 57.4 |
| O=c1cc(-c2ccc(O)cc2)oc2cc(O[C@@H]3O[C@H](CO)[C@@H](O)[C@H](O)[C@H]3O)cc(O)c12 | > 100 | > 100 | > 100 | > 100 | > 100 | > 100 | > 100 | > 100 | > 100 | > 100 |  |  |  |  |  |  |  |  |  |  |
